pIC50: −log10 of the molar value.
Tests used:
ErbB2 = biological target: T1, ErbB2 (Homo sapiens, UniProt P04626); experiment: ErbB-2 substrate phosphorylation assay (HTRF); type: biochemical
T1 construct: made in house; host or cells: baculovirus expression system
Procedure, shortened: (§1)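 Baculovirus-expressed kinase (0.8 nM EGFR or 10 nM ErbB2 in enzyme mix) with Peptide C 0.8 μM and ATP 20 μM (substrate-mix levels), MOPS pH 7.5, MnCl2; 90 min, 20 °C, HTRF anti-phosphotyrosine. Method A adds 1 h enzyme–compound preincubation; B none. pIC50, final compound 0.00027–47.6 μM.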

HN5 tumor cells = experiment: Method A: Methylene Blue Growth Inhibition Assay, HN5; type: cell-based; details: Homo sapiens, 72 h, 3 days
Method: (§2) Human breast (BT474) and head and neck (HN5) tumor cells were cultured in low glucose DMEM (Life Technologies 12320-032) containing 10% fetal bovine serum (FBS). Human colon tumor cells (Colo205) were cultured in DMEM (Invitrogen, 10564) containing 10% FBS. The SV40 transformed human mammary epithelial cell line HB4a was transfected with either human H-ras cDNA (HB4a r4.2) or the human c-ErbB2 cDNA (HB4a c5.2). The HB4a clones were cultured in RPMI containing 10% FBS, insulin (5 g/mL), hydrocortisone (5 g/mL), supplemented with the selection agent hygromycin B (50 g/mL). All lines were grown in a humidified incubator at 37° C. in 95% air, 5% CO2. Cells were harvested using trypsin/EDTA, counted using a haemocytometer, and plated in 100 μL of the appropriate media, at the following densities, in a 96-well tissue culture plate (Falcon 3075): BT474 10,000 cells/well, HN5 3,000 cells/well. The next day, compounds were diluted in DMEM containing […] gentamicin, at twice the final required concentration, from 10 mM stock solutions in DMSO. 100 μl/well of these dilutions were added to the 100 μL of media currently on the cell plates. Medium containing 0.6% DMSO was added to control wells. Compounds diluted in DMEM were added to all cell lines. The final concentration of DMSO in all wells was 0.3%. Cells were returned to the incubator (37° C., […]) for 3 days. Medium was then removed by aspiration. Cell biomass was estimated by staining cells with 90 μL/well methylene blue (Sigma M9140, 0.5% in 1:1 EtOH:H2O), and incubation at room temperature for at least 30 minutes. Stain was removed, and the plates rinsed by immersion in deionized H2O and air-dried. To release stain from the cells 100 μL of solubilization solution were added (1% N-lauroyl sarcosine, sodium salt, Sigma L5125, in PBS), and plates were shaken gently for about 30 minutes. Optical density at 620 nm was measured on a microplate reader. Percent inhibition of cell growth was calculated relative to vehicle-treated control wells. Concentration of compound that inhibits 50% of control cell growth (IC50) was interpolated using nonlinear regression (Levenberg-Marquardt) and the equation,
(§3) y=Vmax*(1−(x/(K+x)))+Y2, where “K” was equal to the IC50.

EGFR = biological target: T2, EGFR (Homo sapiens, UniProt P00533); experiment: EGFR substrate phosphorylation assay (HTRF); type: biochemical
T2 construct: made in house; host or cells: baculovirus expression system
T2 sequence (P00533 25-1210): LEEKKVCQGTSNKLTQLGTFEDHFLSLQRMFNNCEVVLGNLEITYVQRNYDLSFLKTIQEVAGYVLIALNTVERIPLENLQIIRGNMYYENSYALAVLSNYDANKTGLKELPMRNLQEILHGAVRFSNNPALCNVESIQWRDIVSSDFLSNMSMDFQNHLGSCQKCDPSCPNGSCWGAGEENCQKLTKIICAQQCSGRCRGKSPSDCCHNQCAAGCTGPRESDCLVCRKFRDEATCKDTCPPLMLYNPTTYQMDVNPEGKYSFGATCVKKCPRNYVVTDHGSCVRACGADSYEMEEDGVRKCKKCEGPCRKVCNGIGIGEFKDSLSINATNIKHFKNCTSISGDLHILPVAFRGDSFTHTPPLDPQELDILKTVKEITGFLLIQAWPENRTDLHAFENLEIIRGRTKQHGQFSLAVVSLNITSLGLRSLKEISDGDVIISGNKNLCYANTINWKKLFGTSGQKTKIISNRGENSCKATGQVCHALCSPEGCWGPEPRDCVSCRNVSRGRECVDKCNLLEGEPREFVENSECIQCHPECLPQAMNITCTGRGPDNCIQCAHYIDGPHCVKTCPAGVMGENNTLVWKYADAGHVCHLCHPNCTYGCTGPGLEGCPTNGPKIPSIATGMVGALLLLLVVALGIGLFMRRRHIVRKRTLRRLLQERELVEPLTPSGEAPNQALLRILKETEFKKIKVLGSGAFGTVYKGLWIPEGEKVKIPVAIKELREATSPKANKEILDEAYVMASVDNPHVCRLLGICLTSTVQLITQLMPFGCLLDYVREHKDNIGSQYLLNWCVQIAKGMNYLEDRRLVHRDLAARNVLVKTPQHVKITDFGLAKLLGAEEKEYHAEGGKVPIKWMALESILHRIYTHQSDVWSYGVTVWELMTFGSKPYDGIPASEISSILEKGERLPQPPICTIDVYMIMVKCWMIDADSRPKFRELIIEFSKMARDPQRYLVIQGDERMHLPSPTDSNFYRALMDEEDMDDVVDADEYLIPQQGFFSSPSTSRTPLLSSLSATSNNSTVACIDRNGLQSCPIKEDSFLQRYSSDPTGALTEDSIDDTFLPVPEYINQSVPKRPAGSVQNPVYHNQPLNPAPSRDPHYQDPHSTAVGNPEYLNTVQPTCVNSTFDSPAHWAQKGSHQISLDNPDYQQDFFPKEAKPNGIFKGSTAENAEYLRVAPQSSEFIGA
Procedure, shortened: as §1

Colo205 tumor cells = experiment: Method A: Methylene Blue Growth Inhibition Assay, Colo205; type: cell-based; details: Homo sapiens, COLO 205, 72 h, 3 days
Method: as §2, §3

BT474 tumor cells = experiment: Method A: Methylene Blue Growth Inhibition Assay, BT474; type: cell-based; details: Homo sapiens, BT-474, 72 h, 3 days
Method: as §2, §3

[1] = Method (A): Enzyme Mix incubated with compound at 20° C. for 1 hr, reaction started by adding Substrate Mix
[2] = Method (B): Substrate Mix added to compound first, reaction started by adding Enzyme Mix

T1 sequence (P04626 23-1255): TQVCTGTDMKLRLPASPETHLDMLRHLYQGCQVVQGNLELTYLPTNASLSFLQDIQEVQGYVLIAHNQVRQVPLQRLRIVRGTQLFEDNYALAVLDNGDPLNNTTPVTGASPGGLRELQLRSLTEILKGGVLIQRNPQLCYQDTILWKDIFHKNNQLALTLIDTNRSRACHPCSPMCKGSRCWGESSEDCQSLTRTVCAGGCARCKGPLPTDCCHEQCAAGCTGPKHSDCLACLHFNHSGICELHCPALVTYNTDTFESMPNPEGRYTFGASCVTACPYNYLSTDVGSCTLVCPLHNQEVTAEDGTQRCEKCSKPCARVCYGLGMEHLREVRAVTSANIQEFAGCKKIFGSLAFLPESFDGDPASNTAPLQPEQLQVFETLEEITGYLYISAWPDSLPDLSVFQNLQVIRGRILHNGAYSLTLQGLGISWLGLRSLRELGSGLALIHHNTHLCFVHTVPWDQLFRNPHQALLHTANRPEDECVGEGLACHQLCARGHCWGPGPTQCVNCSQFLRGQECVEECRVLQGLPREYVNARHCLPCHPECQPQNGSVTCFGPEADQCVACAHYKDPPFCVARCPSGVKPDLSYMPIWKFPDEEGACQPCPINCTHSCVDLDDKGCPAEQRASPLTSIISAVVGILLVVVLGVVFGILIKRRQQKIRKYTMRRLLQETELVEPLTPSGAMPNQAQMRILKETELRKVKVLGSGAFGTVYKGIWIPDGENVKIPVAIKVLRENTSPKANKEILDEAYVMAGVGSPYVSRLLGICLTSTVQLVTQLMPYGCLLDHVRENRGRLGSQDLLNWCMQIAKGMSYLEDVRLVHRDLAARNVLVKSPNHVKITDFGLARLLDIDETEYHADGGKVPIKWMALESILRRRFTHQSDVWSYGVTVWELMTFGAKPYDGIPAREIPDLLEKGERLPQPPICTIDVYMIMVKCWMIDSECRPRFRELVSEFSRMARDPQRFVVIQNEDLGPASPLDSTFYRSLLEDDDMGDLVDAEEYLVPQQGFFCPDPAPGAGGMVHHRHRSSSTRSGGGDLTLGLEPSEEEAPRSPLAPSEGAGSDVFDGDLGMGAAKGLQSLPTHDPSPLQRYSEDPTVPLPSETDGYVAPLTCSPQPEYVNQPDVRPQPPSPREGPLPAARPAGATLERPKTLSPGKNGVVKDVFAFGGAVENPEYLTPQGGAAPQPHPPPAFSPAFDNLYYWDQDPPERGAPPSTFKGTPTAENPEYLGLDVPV

| SMILES | pIC50 (ErbB2; [1]) | pIC50 (HN5 tumor cells) | pIC50 (EGFR; [1]) | pIC50 (Colo205 tumor cells) | pIC50 (BT474 tumor cells) | pIC50 (ErbB2; [2]) | pIC50 (EGFR; [2]) |
| --- | --- | --- | --- | --- | --- | --- | --- |
| COCCOc1ccc(Nc2nccc(-c3sc(N)nc3-c3cccc(NC(=O)c4c(F)cccc4F)c3)n2)cc1F [Example 3] | > 7.00 | > 7.00 | > 7.00 | 6.00 to 7.00 | > 7.00 | – | – |
| COCCOc1ccc(Nc2nccc(-c3sc(N)nc3-c3cccc(NC(=O)c4cc(F)ccc4F)c3)n2)cc1F [Example 58, N-[3-(2-Amino-5-{2-[(3-fluoro-4-{[2-(methyloxy)ethy]oxy}phenyl)amino]-4-pyrimidinyl}-1,3-thiazol-4-yl)phenyl]-2,5-difluorobenzamide] | > 7.00 | > 7.00 | > 7.00 | 6.00 to 7.00 | > 7.00 | – | – |
| Nc1nc(-c2cccc(NC(=O)c3cc(F)ccc3F)c2)c(-c2ccnc(Nc3ccc4c(c3)CNCC4)n2)s1 [Example 57] | > 7.00 | > 7.00 | > 7.00 | 6.00 to 7.00 | > 7.00 | – | – |
| CNc1nc(-c2cccc(NC(=O)c3cc(F)ccc3F)c2)c(-c2ccnc(Nc3ccc(OC)c(F)c3)n2)s1 [Example 51, 2,5-Difluoro-N-{3-[5-(2-{[3-fluoro-4-(methyloxy)phenyl]amino}-4-pyrimidinyl)-2-(methylamino)-1,3-thiazol-4-yl]phenyl}benzamide] | > 7.00 | < 6.00 | > 7.00 | < 6.00 | 6.00 to 7.00 | – | – |
| O=C(Nc1cccc(-c2nc(NCCN3CCOCC3)sc2-c2ccnc(Nc3ccc4c(c3)CNCC4)n2)c1)c1c(F)cccc1F [Example 1, 2,6-Difluoro-N-(3-{2-{[2-(4-morpholinyl)ethyl]amino}-5-[2-(1,2,3,4-tetrahydro-7-isoquinolinylamino)-4-pyrimidinyl]-1,3-thiazol-4-yl}phenyl)benzamide] | > 7.00 | > 7.00 | > 7.00 | 6.00 to 7.00 | > 7.00 | – | – |
| CN(C)CCOc1ccc(Nc2nccc(-c3sc(N)nc3-c3cccc(NC(=O)C4CCCCC4)c3)n2)cc1Cl [Example 61] | > 7.00 | > 7.00 | > 7.00 | 6.00 to 7.00 | 6.00 to 7.00 | – | – |
| Nc1nc(-c2cccc(OCc3ccccc3)c2)c(-c2ccnc(Nc3ccc4c(c3)CNCC4)n2)s1 [Example 71, N-[4-(2-Amino-4-{3-[(phenylmethyl)oxy]phenyl}-1,3-thiazol-5-yl)-2-pyrimidinyl]-1,2,3,4-tetrahydro-7-isoquinolinamine] | > 7.00 | 6.00 to 7.00 | > 7.00 | < 6.00 | 6.00 to 7.00 | – | – |
| O=C(Nc1cccc(-c2ncsc2-c2ccnc(Nc3cccc(F)c3)n2)c1)c1c(F)cccc1F [Example 88] | – | > 7.00 | 6.00 to 7.00 | – | 6.00 to 7.00 | 6.00 to 7.00 | – |
| CN(C)CCCNc1ccc(Nc2nccc(-c3sc(N)nc3-c3cccc(NC(=O)C4CCCCC4)c3)n2)cc1F [Example 60] | > 7.00 | > 7.00 | > 7.00 | 6.00 to 7.00 | 6.00 to 7.00 | – | – |
| COc1ccc(Nc2nccc(-c3sc(NCCN4CCOCC4)nc3-c3cccc(NC(=O)c4cc(F)ccc4F)c3)n2)cc1F [Example 53, 2,5-Difluoro-N-[3-(5-(2-{[3-fluoro-4-(methyloxy)phenyl]amino}-4-pyrimidinyl)-2-{[2-(4-morpholinyl)ethyl]amino}-1,3-thiazol-4-yl)phenyl]benzamide] | > 7.00 | > 7.00 | > 7.00 | 6.00 to 7.00 | > 7.00 | – | – |
| COc1ccc(Nc2nccc(-c3scnc3-c3cccc(NC(=O)c4c(F)cccc4F)c3)n2)cc1F [Example 87, 2,6-Difluoro-N-{3-[5-(2-{[3-fluoro-4-(methyloxy)phenyl]amino}-4-pyrimidinyl)-1,3-thiazol-4-yl]phenyl}benzamide] | – | > 7.00 | – | < 6.00 | 6.00 to 7.00 | 6.00 to 7.00 | 6.00 to 7.00 |
| Nc1nc(-c2cccc(NC(=O)c3c(F)cccc3F)c2)c(-c2ccnc(Nc3cccc(-c4cnco4)c3)n2)s1 [Example 14, N-{3-[2-Amino-5-(2-{[3-(1,3-oxazol-5-yl)phenyl]amino}-4-pyrimidinyl)-1,3-thiazol-4-yl]phenyl}-2,6-difluorobenzamide] | > 7.00 | > 7.00 | > 7.00 | > 7.00 | > 7.00 | – | – |
| Nc1nc(-c2cccc(NC(=O)c3c(F)cccc3F)c2)c(-c2ccnc(Nc3ccc4c(c3)CNCC4)n2)s1 [Example 21, N-(3-{2-Amino-5-[2-(1,2,3,4-tetrahydro-7-isoquinolinylamino)-4-pyrimidinyl]-1,3-thiazol-4-yl}phenyl)-2,6-difluorobenzamide] | > 7.00 | > 7.00 | > 7.00 | 6.00 to 7.00 | > 7.00 | – | – |
| CN(C)CCCNc1ccc(Nc2nccc(-c3sc(N)nc3-c3cccc(NC(=O)c4cccn4C)c3)n2)cc1F [Example 65, N-[3-(2-Amino-5-{2-[(4-{[3-(dimethylamino)propyl]amino}-3-fluorophenyl)amino]-4-pyrimidinyl}-1,3-thiazol-4-yl)phenyl]-1-methyl-1H-pyrrole-2-carboxamide] | > 7.00 | > 7.00 | > 7.00 | 6.00 to 7.00 | > 7.00 | – | – |
| Nc1nc(-c2cccc(NC(=O)c3cc(F)ccc3F)c2)c(-c2ccnc(Nc3cccc(-c4cnco4)c3)n2)s1 [Example 54] | > 7.00 | > 7.00 | > 7.00 | < 6.00 | > 7.00 | – | – |
| Nc1nc(-c2cccc(NC(=O)C3CCCCC3)c2)c(-c2ccnc(Nc3cccc(-c4cnco4)c3)n2)s1 [Example 62, N-{3-[2-Amino-5-(2-{[3-(1,3-oxazol-5-yl)phenyl]amino}-4-pyrimidinyl)-1,3-thiazol-4-yl]phenyl}cyclohexanecarboxamide] | > 7.00 | > 7.00 | > 7.00 | 6.00 to 7.00 | 6.00 to 7.00 | – | – |
| COc1ccc(Nc2nccc(-c3sc(N)nc3-c3cccc(NC(=O)c4cc(F)ccc4F)c3)n2)cc1F [Example 50, N-{3-[2-Amino-5-(2-{[3-fluoro-4-(methyloxy)phenyl]amino}-4-pyrimidinyl)-1,3-thiazol-4-yl]phenyl}-2,5-difluorobenzamide] | > 7.00 | > 7.00 | > 7.00 | < 6.00 | 6.00 to 7.00 | – | – |
| CN(C)CCOc1ccc(Nc2nccc(-c3sc(N)nc3-c3cccc(OCc4ccccc4)c3)n2)cc1Cl [Example 70, 4-(2-Amino-4-{3-[(phenylmethyl)oxy]phenyl}-1,3-thiazol-5-yl)-N-(3-chloro-4-{[2-(dimethylamino)ethyl]oxy}phenyl)-2-pyrimidinamine] | > 7.00 | 6.00 to 7.00 | > 7.00 | 6.00 to 7.00 | 6.00 to 7.00 | – | – |
| COCCNc1nc(-c2cccc(NC(=O)c3cc(F)ccc3F)c2)c(-c2ccnc(Nc3ccc(OC)c(F)c3)n2)s1 [Example 52, 2,5-Difluoro-N-[3-(5-(2-{[3-fluoro-4-(methyloxy)phenyl]amino}-4-pyrimidinyl)-2-{[2-(methyloxy)ethyl]amino}-1,3-thiazol-4-yl)phenyl]benzamide] | > 7.00 | 6.00 to 7.00 | > 7.00 | 6.00 to 7.00 | > 7.00 | – | – |

From US20110098296A1, “Thiazole And Oxazole Kinase Inhibitors” (priority 2007, published 2011)
